tested on: HDQ-P1; experiment: normalised response (% of control), CellTiter-Glo; higher = more viable cells (100 = DMSO, 0 = benzethonium chloride kill control); conditions: incubation time: 72 h
How it was run: (§1)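 Each value is the plate-normalised signal at one concentration of the series. Breast cancer cell lines (20 µl suspension) were incubated 72 h in 384-well plates with compound at 5 concentrations in 10-fold steps over a compound-specific 10,000-fold range. CellTox Green and then CellTiter-Glo were read, and each plate was scaled to 0.1 % DMSO (100) and a positive kill control (0).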

SMILES	normalised response
COc1cc2c(NC3CCN(C(C)C)CC3)nc(C3CCCCC3)nc2cc1OCCCN1CCCC1 [UNC0638] (1000 nM)	95.6%
CCc1cncnc1N1CCN(Cc2nc3ccc(C(F)(F)F)cc3[nH]2)CC1 (1000 nM)	103%
COc1cc2c(Oc3ccc4[nH]c(C)cc4c3F)ncnc2cc1OCCCN1CCCC1 [Cediranib] (100 nM)	102%
CC[C@@H]1C(=O)N(C)c2cnc(Nc3ccc(C(=O)NC4CCN(C)CC4)cc3OC)nc2N1C1CCCC1 [BI 2536] (100 nM)	84%
O=C(O)CCCCC(CCSCc1ccccc1)SCc1ccccc1 (centres undefined) [CPI-613] (1000 nM)	102%
Nc1ncn([C@H]2C[C@H](O)[C@@H](CO)O2)c(=O)n1 [Decitabine] (1000 nM)	93.2%

tested on: Hs578T; experiment: as above; conditions: incubation time: 72 h
How it was run: as §1

SMILES	normalised response
COc1cc2c(NC3CCN(C(C)C)CC3)nc(C3CCCCC3)nc2cc1OCCCN1CCCC1 [UNC0638] (1000 nM)	103%
CCc1cncnc1N1CCN(Cc2nc3ccc(C(F)(F)F)cc3[nH]2)CC1 (1000 nM)	98.5%
COc1cc2c(Oc3ccc4[nH]c(C)cc4c3F)ncnc2cc1OCCCN1CCCC1 [Cediranib] (100 nM)	104%
CC[C@@H]1C(=O)N(C)c2cnc(Nc3ccc(C(=O)NC4CCN(C)CC4)cc3OC)nc2N1C1CCCC1 [BI 2536] (100 nM)	38.8%
O=C(O)CCCCC(CCSCc1ccccc1)SCc1ccccc1 (centres undefined) [CPI-613] (1000 nM)	106%
Nc1ncn([C@H]2C[C@H](O)[C@@H](CO)O2)c(=O)n1 [Decitabine] (1000 nM)	93%

tested on: MCF-10A; experiment: as above; conditions: incubation time: 72 h
How it was run: as §1

SMILES	normalised response
COc1cc2c(NC3CCN(C(C)C)CC3)nc(C3CCCCC3)nc2cc1OCCCN1CCCC1 [UNC0638] (1000 nM)	76.7%
CCc1cncnc1N1CCN(Cc2nc3ccc(C(F)(F)F)cc3[nH]2)CC1 (1000 nM)	103%
COc1cc2c(Oc3ccc4[nH]c(C)cc4c3F)ncnc2cc1OCCCN1CCCC1 [Cediranib] (100 nM)	95.4%
CC[C@@H]1C(=O)N(C)c2cnc(Nc3ccc(C(=O)NC4CCN(C)CC4)cc3OC)nc2N1C1CCCC1 [BI 2536] (100 nM)	60.3%
O=C(O)CCCCC(CCSCc1ccccc1)SCc1ccccc1 (centres undefined) [CPI-613] (1000 nM)	103%
Nc1ncn([C@H]2C[C@H](O)[C@@H](CO)O2)c(=O)n1 [Decitabine] (1000 nM)	93.5%

tested on: MDA-MB-231; experiment: as above; conditions: incubation time: 72 h
How it was run: as §1

SMILES	normalised response
COc1cc2c(NC3CCN(C(C)C)CC3)nc(C3CCCCC3)nc2cc1OCCCN1CCCC1 [UNC0638] (1000 nM)	92%
CCc1cncnc1N1CCN(Cc2nc3ccc(C(F)(F)F)cc3[nH]2)CC1 (1000 nM)	99.4%
COc1cc2c(Oc3ccc4[nH]c(C)cc4c3F)ncnc2cc1OCCCN1CCCC1 [Cediranib] (100 nM)	103%
CC[C@@H]1C(=O)N(C)c2cnc(Nc3ccc(C(=O)NC4CCN(C)CC4)cc3OC)nc2N1C1CCCC1 [BI 2536] (100 nM)	51%
O=C(O)CCCCC(CCSCc1ccccc1)SCc1ccccc1 (centres undefined) [CPI-613] (1000 nM)	102%
Nc1ncn([C@H]2C[C@H](O)[C@@H](CO)O2)c(=O)n1 [Decitabine] (1000 nM)	98.4%

tested on: MDA-MB-436; experiment: as above; conditions: incubation time: 72 h
How it was run: as §1

SMILES	normalised response
COc1cc2c(NC3CCN(C(C)C)CC3)nc(C3CCCCC3)nc2cc1OCCCN1CCCC1 [UNC0638] (1000 nM)	91.3%
CCc1cncnc1N1CCN(Cc2nc3ccc(C(F)(F)F)cc3[nH]2)CC1 (1000 nM)	106%
COc1cc2c(Oc3ccc4[nH]c(C)cc4c3F)ncnc2cc1OCCCN1CCCC1 [Cediranib] (100 nM)	106%
CC[C@@H]1C(=O)N(C)c2cnc(Nc3ccc(C(=O)NC4CCN(C)CC4)cc3OC)nc2N1C1CCCC1 [BI 2536] (100 nM)	53.1%
O=C(O)CCCCC(CCSCc1ccccc1)SCc1ccccc1 (centres undefined) [CPI-613] (1000 nM)	99.5%
Nc1ncn([C@H]2C[C@H](O)[C@@H](CO)O2)c(=O)n1 [Decitabine] (1000 nM)	97.3%

tested on: MDA-MB-453; experiment: as above; conditions: incubation time: 72 h
How it was run: as §1

SMILES	normalised response
COc1cc2c(NC3CCN(C(C)C)CC3)nc(C3CCCCC3)nc2cc1OCCCN1CCCC1 [UNC0638] (1000 nM)	90.6%
CCc1cncnc1N1CCN(Cc2nc3ccc(C(F)(F)F)cc3[nH]2)CC1 (1000 nM)	94.8%
COc1cc2c(Oc3ccc4[nH]c(C)cc4c3F)ncnc2cc1OCCCN1CCCC1 [Cediranib] (100 nM)	102%
CC[C@@H]1C(=O)N(C)c2cnc(Nc3ccc(C(=O)NC4CCN(C)CC4)cc3OC)nc2N1C1CCCC1 [BI 2536] (100 nM)	86.5%
O=C(O)CCCCC(CCSCc1ccccc1)SCc1ccccc1 (centres undefined) [CPI-613] (1000 nM)	103%
Nc1ncn([C@H]2C[C@H](O)[C@@H](CO)O2)c(=O)n1 [Decitabine] (1000 nM)	112%

tested on: MDA-MB-468; experiment: as above; conditions: incubation time: 72 h
How it was run: as §1

SMILES	normalised response
COc1cc2c(NC3CCN(C(C)C)CC3)nc(C3CCCCC3)nc2cc1OCCCN1CCCC1 [UNC0638] (1000 nM)	78.8%
CCc1cncnc1N1CCN(Cc2nc3ccc(C(F)(F)F)cc3[nH]2)CC1 (1000 nM)	90.3%
COc1cc2c(Oc3ccc4[nH]c(C)cc4c3F)ncnc2cc1OCCCN1CCCC1 [Cediranib] (100 nM)	111%
CC[C@@H]1C(=O)N(C)c2cnc(Nc3ccc(C(=O)NC4CCN(C)CC4)cc3OC)nc2N1C1CCCC1 [BI 2536] (100 nM)	47.9%
O=C(O)CCCCC(CCSCc1ccccc1)SCc1ccccc1 (centres undefined) [CPI-613] (1000 nM)	108%
Nc1ncn([C@H]2C[C@H](O)[C@@H](CO)O2)c(=O)n1 [Decitabine] (1000 nM)	26.2%

tested on: MFM-223; experiment: as above; conditions: incubation time: 72 h
How it was run: as §1

SMILES	normalised response
COc1cc2c(NC3CCN(C(C)C)CC3)nc(C3CCCCC3)nc2cc1OCCCN1CCCC1 [UNC0638] (1000 nM)	83.6%
CCc1cncnc1N1CCN(Cc2nc3ccc(C(F)(F)F)cc3[nH]2)CC1 (1000 nM)	106%
COc1cc2c(Oc3ccc4[nH]c(C)cc4c3F)ncnc2cc1OCCCN1CCCC1 [Cediranib] (100 nM)	97.9%
CC[C@@H]1C(=O)N(C)c2cnc(Nc3ccc(C(=O)NC4CCN(C)CC4)cc3OC)nc2N1C1CCCC1 [BI 2536] (100 nM)	49.1%
O=C(O)CCCCC(CCSCc1ccccc1)SCc1ccccc1 (centres undefined) [CPI-613] (1000 nM)	108%
Nc1ncn([C@H]2C[C@H](O)[C@@H](CO)O2)c(=O)n1 [Decitabine] (1000 nM)	96.5%

tested on: SK-BR-3; experiment: as above; conditions: incubation time: 72 h
How it was run: as §1

SMILES	normalised response
COc1cc2c(NC3CCN(C(C)C)CC3)nc(C3CCCCC3)nc2cc1OCCCN1CCCC1 [UNC0638] (1000 nM)	84.6%
CCc1cncnc1N1CCN(Cc2nc3ccc(C(F)(F)F)cc3[nH]2)CC1 (1000 nM)	112%
COc1cc2c(Oc3ccc4[nH]c(C)cc4c3F)ncnc2cc1OCCCN1CCCC1 [Cediranib] (100 nM)	103%
CC[C@@H]1C(=O)N(C)c2cnc(Nc3ccc(C(=O)NC4CCN(C)CC4)cc3OC)nc2N1C1CCCC1 [BI 2536] (100 nM)	17.6%
O=C(O)CCCCC(CCSCc1ccccc1)SCc1ccccc1 (centres undefined) [CPI-613] (1000 nM)	100%
Nc1ncn([C@H]2C[C@H](O)[C@@H](CO)O2)c(=O)n1 [Decitabine] (1000 nM)	85.5%

Source: the supplement of paper PMC4862054
